# From PubChem BioAssay (NCI)
#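 Dose response: 5 concentrations. Exposure: 48 h. Format: 96-well plates. Endpoint: linear interpolation; highest concentration if not reached. GI50 is the concentration that inhibits growth by half. TGI: total growth inhibition.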
# Tests used:
# Experiment in all cases: NCI-60 cell line screen, 48 h
# IGROV1 ovarian = tested on: IGROV1 ovarian
# EKVX NSCLC = tested on: EKVX NSCLC
# RXF 393 renal = tested on: RXF 393 renal
# MALME-3M melanoma = tested on: MALME-3M melanoma
# KM12 colon = tested on: KM12 colon
# A549 NSCLC = tested on: A549 NSCLC
# DU-145 prostate = tested on: DU-145 prostate
# SNB-19 CNS = tested on: SNB-19 CNS
# 786-0 renal = tested on: 786-0 renal
# MOLT-4 leukemia = tested on: MOLT-4 leukemia
# SR leukemia = tested on: SR leukemia
# T-47D breast = tested on: T-47D breast
# U251 CNS = tested on: U251 CNS
# OVCAR-8 ovarian = tested on: OVCAR-8 ovarian
# LOX IMVI melanoma = tested on: LOX IMVI melanoma
# HCT-15 colon = tested on: HCT-15 colon
# SW-620 colon = tested on: SW-620 colon
# OVCAR-4 ovarian = tested on: OVCAR-4 ovarian
# HS 578T breast = tested on: HS 578T breast
# HL-60(TB) leukemia = tested on: HL-60(TB) leukemia
# SK-OV-3 ovarian = tested on: SK-OV-3 ovarian
# M14 melanoma = tested on: M14 melanoma
# TK-10 renal = tested on: TK-10 renal
# COLO 205 colon = tested on: COLO 205 colon
# CAKI-1 renal = tested on: CAKI-1 renal
# SK-MEL-5 melanoma = tested on: SK-MEL-5 melanoma
# SNB-75 CNS = tested on: SNB-75 CNS
# SF-295 CNS = tested on: SF-295 CNS
# NCI/ADR-RES ovarian = tested on: NCI/ADR-RES ovarian
# NCI-H460 lung = tested on: NCI-H460 lung
# HOP-62 NSCLC = tested on: HOP-62 NSCLC
# A498 renal = tested on: A498 renal
# SF-539 CNS = tested on: SF-539 CNS
# HCT-116 colon = tested on: HCT-116 colon
# SF-268 CNS = tested on: SF-268 CNS
# RPMI-8226 leukemia = tested on: RPMI-8226 leukemia
# NCI-H226 lung = tested on: NCI-H226 lung
# OVCAR-5 ovarian = tested on: OVCAR-5 ovarian
# HT29 colon = tested on: HT29 colon
# HCC-2998 colon = tested on: HCC-2998 colon
# ACHN renal = tested on: ACHN renal
# K-562 leukemia = tested on: K-562 leukemia
# MCF7 breast = tested on: MCF7 breast
# OVCAR-3 ovarian = tested on: OVCAR-3 ovarian
# MDA-MB-435 = tested on: MDA-MB-435
# SK-MEL-28 melanoma = tested on: SK-MEL-28 melanoma
# UACC-257 melanoma = tested on: UACC-257 melanoma
# NCI-H522 lung = tested on: NCI-H522 lung
# UO-31 renal = tested on: UO-31 renal
# UACC-62 melanoma = tested on: UACC-62 melanoma
# MDA-MB-231 breast = tested on: MDA-MB-231 breast
# CCRF-CEM leukemia = tested on: CCRF-CEM leukemia
# NCI-H23 lung = tested on: NCI-H23 lung
smiles,measurement,setting,value
COc1ccc(Cl)cc1Nc1nc(C(F)(F)F)ccc1C(=O)N/N=C/c1ccc([N+](=O)[O-])cc1,GI50,IGROV1 ovarian,2.56 µM
same,TGI,IGROV1 ovarian,6.49 µM
same,GI50,EKVX NSCLC,2.01 µM
same,TGI,EKVX NSCLC,9.27 µM
same,GI50,RXF 393 renal,1.28 µM
same,TGI,RXF 393 renal,6.04 µM
same,GI50,MALME-3M melanoma,2.3 µM
same,TGI,MALME-3M melanoma,5.59 µM
same,GI50,KM12 colon,1.79 µM
same,TGI,KM12 colon,4.98 µM
same,GI50,A549 NSCLC,3.41 µM
same,TGI,A549 NSCLC,52.7 µM
same,GI50,DU-145 prostate,1.27 µM
same,TGI,DU-145 prostate,3.21 µM
same,GI50,SNB-19 CNS,2.33 µM
same,TGI,SNB-19 CNS,13 µM
same,GI50,786-0 renal,1.92 µM
same,TGI,786-0 renal,9.27 µM
same,GI50,MOLT-4 leukemia,3.82 µM
same,TGI,MOLT-4 leukemia,13.2 µM
same,GI50,SR leukemia,1.76 µM
same,TGI,SR leukemia,4.95 µM
same,GI50,T-47D breast,1.81 µM
same,TGI,T-47D breast,7.75 µM
same,GI50,U251 CNS,2.06 µM
same,TGI,U251 CNS,6.63 µM
same,GI50,OVCAR-8 ovarian,2.77 µM
same,TGI,OVCAR-8 ovarian,62.2 µM
same,GI50,LOX IMVI melanoma,1.39 µM
same,TGI,LOX IMVI melanoma,4.79 µM
same,GI50,HCT-15 colon,1.29 µM
same,TGI,HCT-15 colon,5.11 µM
same,GI50,SW-620 colon,2.77 µM
same,TGI,SW-620 colon,> 100 µM
same,GI50,OVCAR-4 ovarian,0.979 µM
same,TGI,OVCAR-4 ovarian,7.68 µM
same,GI50,HS 578T breast,2.57 µM
same,TGI,HS 578T breast,62.9 µM
same,GI50,HL-60(TB) leukemia,2.14 µM
same,TGI,HL-60(TB) leukemia,7.18 µM
same,GI50,SK-OV-3 ovarian,1.73 µM
same,TGI,SK-OV-3 ovarian,5.77 µM
same,GI50,M14 melanoma,1.6 µM
same,TGI,M14 melanoma,5.41 µM
same,GI50,TK-10 renal,1.22 µM
same,TGI,TK-10 renal,5.88 µM
same,GI50,COLO 205 colon,1.65 µM
same,TGI,COLO 205 colon,3.58 µM
same,GI50,CAKI-1 renal,1.46 µM
same,TGI,CAKI-1 renal,4.74 µM
same,GI50,SK-MEL-5 melanoma,1.98 µM
same,TGI,SK-MEL-5 melanoma,4.86 µM
same,GI50,SNB-75 CNS,2.21 µM
same,TGI,SNB-75 CNS,12.9 µM
same,GI50,SF-295 CNS,1.17 µM
same,TGI,SF-295 CNS,3.79 µM
same,GI50,NCI/ADR-RES ovarian,2.25 µM
same,TGI,NCI/ADR-RES ovarian,6.7 µM
same,GI50,NCI-H460 lung,1.9 µM
same,TGI,NCI-H460 lung,4.86 µM
same,GI50,HOP-62 NSCLC,2.35 µM
same,TGI,HOP-62 NSCLC,11.4 µM
same,GI50,A498 renal,1.86 µM
same,TGI,A498 renal,6.45 µM
same,GI50,SF-539 CNS,3.05 µM
same,TGI,SF-539 CNS,19.1 µM
same,GI50,HCT-116 colon,2.45 µM
same,TGI,HCT-116 colon,14.7 µM
same,GI50,SF-268 CNS,1.69 µM
same,TGI,SF-268 CNS,5.8 µM
same,GI50,RPMI-8226 leukemia,1.6 µM
same,TGI,RPMI-8226 leukemia,6.55 µM
same,GI50,NCI-H226 lung,2.01 µM
same,TGI,NCI-H226 lung,8.65 µM
same,GI50,OVCAR-5 ovarian,1.73 µM
same,TGI,OVCAR-5 ovarian,7.59 µM
same,GI50,HT29 colon,2.2 µM
same,TGI,HT29 colon,5.49 µM
same,GI50,HCC-2998 colon,1.29 µM
same,TGI,HCC-2998 colon,7.27 µM
same,GI50,ACHN renal,2.18 µM
same,TGI,ACHN renal,5.42 µM
same,GI50,K-562 leukemia,2.95 µM
same,TGI,K-562 leukemia,12.6 µM
same,GI50,MCF7 breast,2.2 µM
same,TGI,MCF7 breast,7.85 µM
same,GI50,OVCAR-3 ovarian,1.25 µM
same,TGI,OVCAR-3 ovarian,3.78 µM
same,GI50,MDA-MB-435,2.66 µM
same,TGI,MDA-MB-435,13.1 µM
same,GI50,SK-MEL-28 melanoma,2.79 µM
same,TGI,SK-MEL-28 melanoma,> 100 µM
same,GI50,UACC-257 melanoma,2.92 µM
same,TGI,UACC-257 melanoma,8.7 µM
same,GI50,NCI-H522 lung,1.62 µM
same,TGI,NCI-H522 lung,4.77 µM
same,GI50,UO-31 renal,1.77 µM
same,TGI,UO-31 renal,5.97 µM
same,GI50,UACC-62 melanoma,2.17 µM
same,TGI,UACC-62 melanoma,6.77 µM
same,GI50,MDA-MB-231 breast,1.49 µM
same,TGI,MDA-MB-231 breast,4.38 µM
same,GI50,CCRF-CEM leukemia,30.8 µM
same,TGI,CCRF-CEM leukemia,> 100 µM
same,GI50,NCI-H23 lung,2.05 µM
same,TGI,NCI-H23 lung,7.52 µM
